Assay results from patent publication US20260206761A1, “HETEROARYL-TRIAZOLE COMPOUNDS AS PESTICIDES” (Bayer Aktiengesellschaft, priority 2019, published 2026).

How the values were obtained:
Format in all cases: in vivo
[1] = test system: adult engorged female ticks (Rhipicephalus microplus); test: Rhipicephalus (Boophilus) microplus injection test; conditions: 168 h, egg deposition after 7 days, read-out: activity (efficacy: infertile eggs); for pest or weed control at 4 pg: application rate 4 pg/animal; for pest or weed control at 0.02 mg: application rate 20 μg/animal
How it was run: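 Efficacy is scored from egg fertility, with 100% meaning every egg infertile and 0% every egg fertile. Five engorged females per test received 1 μL DMSO solution abdominally. Eggs of unclear fertility were kept until hatching, about 42 days.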

[2] = test system: adult cat fleas (Ctenocephalides felis); test: Ctenocephalides felis in-vitro contact test, adult cat flea; conditions: application rate 5 μg/cm^2 (=500 g/ha), after 48 hours, read-out: activity (efficacy: fleas dead or moribund)
How it was run: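 Acetone solutions of compound coated onto inner walls of glass tubes (900 ppm giving […]); after drying, 5-10 adult Ctenocephalides felis added and held at room temperature. At 48 h, fleas placed on a 45-50° C heating plate; those unable to climb away scored dead or moribund, expressed as % efficacy.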

[3] = test system: larvae of the banded cucumber beetle (Diabrotica balteata); test: Diabrotica balteata spray test; conditions: 168 h, after 7 days, read-out: activity (efficacy: seedlings grown); for pest or weed control at 100 g/ha: application rate 100 g/ha (=32 pg/well); for pest or weed control at 500 g/ha: application rate 500 g/ha (=160 pg/well)
How it was run: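 Wheat seedlings, germinated 1 day on agar (5 seeds/well), sprayed with active compound in acetone/DMF diluted in water containing 1000 ppm emulsifier, then infested with 10-20 D. balteata larvae. Efficacy (%) scored after 7 days: 100% = seedlings grown as untreated uninfested control, 0% = no seedlings grown.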

[4] = test system: fall armyworm larvae (Spodoptera frugiperda); test: Spodoptera frugiperda spray test; conditions: 168 h, read-out: activity (mortality)
How it was run: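 Compound in acetone/DMF, diluted in water with 1000 ppm alkylarylpolyglycol ether emulsifier, sprayed on maize leaf sections. Dried leaves infested with fall armyworm larvae; % mortality after 7 days (100% = all killed, 0% = none).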

[5] = test system: Aedes aegypti strain MONHEIM; test: Aedes aegypti test (AEDSAE surface treatment & contact assay); conditions: 24 hours after contact, read-out: efficacy (mortality); for mortality at 4 mg/m2: surface concentration 4 mg/m^2, exposure 30 minutes; for mortality at 20 mg/m2: surface concentration 20 mg/m^2, exposure 30 minutes
How it was run: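 Compound in acetone (2 mg/ml) with 2000 ppm RME pipetted onto glazed tile and dried; adult Aedes aegypti MONHEIM exposed 30 min. Percent mortality scored 24 h after contact.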

[6] = test system: Musca domestica strain WHO-N; test: Musca domestica test (MUSCDO surface treatment & contact assay); conditions: 24 hours after contact, read-out: efficacy (mortality); for mortality at 4 mg/m2: surface concentration 4 mg/m^2, exposure 30 minutes; for mortality at 20 mg/m2: surface concentration 20 mg/m^2, exposure 30 minutes
How it was run: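 Compound dissolved at 2 mg/ml in acetone with 2000 ppm rapeseed oil methyl ester and pipetted onto a glazed tile. After the acetone evaporated, adult WHO-N flies were exposed to the dried surface for 30 min, with % mortality scored 24 h after contact.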

[7] = test system: green peach aphid (Myzus persicae); test: Myzus persicae oral test; conditions: 120 h, application rate 4 ppm, after 5 days
How it was run: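 Compound was dissolved at 1 part by weight in 100 parts acetone, then diluted with water to test concentration and combined with IPL41 insect medium (33%+15% sugar). A mixed aphid population fed on this through a parafilm seal, and mortality (%) was scored after 5 days.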

[8] = test system: adult unfed cat fleas (Ctenocephalides felis); test: Ctenocephalides felis oral test; conditions: 48 h, read-out: activity (mortality)
How it was run: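 About 20 adult unfed fleas fed through parafilm on cattle blood containing compound (DMSO stock diluted in blood), blood held at 37 °C and fleas at room temperature. Mortality (%) scored after 2 days.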

Structure (SMILES) | pest or weed control at 4 pg [1] | pest or weed control at 0.02 mg [1] | pest or weed control at 5 µg/cm2 [2] | pest or weed control at 100 g/ha [3] | pest or weed control at 500 g/ha [3] | mortality at 100 g/ha [4] | mortality at 500 g/ha [4] | mortality at 4 mg/m2 [5] | mortality at 20 mg/m2 [5] | mortality at 4 mg/m2 [6] | mortality at 20 mg/m2 [6] | mortality at 4 ppm [7] | mortality at 100 ppm [8]
C[C@H](NC(=O)c1cc(OC(F)(F)F)cc(C2CC2)c1)c1ncnn1-c1ccc(Cl)cn1 [II-23] | 100% | 100% | 100% | 100% | 100% | 100% | 100% | 80 to 100% | 80 to 100% | 80 to 100% | 80 to 100% | – | –
Cc1nc([C@H](C)NC(=O)c2cc(C(F)(F)F)n(C)n2)n(-c2ncccn2)n1 [II-25] | 100% | 100% | 100% | – | 100% | – | – | 80 to 100% | 80 to 100% | 80 to 100% | 80 to 100% | – | –
C[C@H](NC(=O)c1cc(C2CC2)cc(C(F)(F)F)c1)c1ncnn1-c1ccc(C#N)cn1 [II-26] | 100% | 100% | 90% | 100% | 100% | 100% | 100% | 80 to 100% | 80 to 100% | 80 to 100% | 80 to 100% | 100% | –
C[C@H](NC(=O)c1cc(C2CC2)cc(C(F)(F)F)c1)c1ncnn1-c1ccc(Cl)cn1 [II-27] | 100% | 100% | 100% | 100% | 100% | 100% | 100% | 80 to 100% | 80 to 100% | 80 to 100% | 80 to 100% | – | 100%
C[C@H](NC(=O)c1cc(C#N)cc(S(C)(=O)=O)c1)c1ncnn1-c1ccc(Cl)cn1 [II-29] | 100% | 100% | 100% | – | 100% | 83% | 100% | 80 to 100% | 80 to 100% | – | – | 100% | 100%
C[C@H](NC(=O)c1cc(C(F)(F)F)cc(S(=O)(=O)C2CC2)c1)c1ncnn1-c1ccc(C#N)cn1 [II-32] | 100% | 100% | – | 100% | 100% | 100% | 100% | 80 to 100% | 80 to 100% | 80 to 100% | 80 to 100% | 100% | 100%
C[C@H](NC(=O)c1cc(Cl)cc(S(C)(=O)=O)c1)c1ncnn1-c1ncc(OC(F)F)cn1 [II-42] | 100% | 100% | 100% | 80% | – | – | – | 80 to 100% | 80 to 100% | – | – | 100% | 100%
C[C@H](NC(=O)c1cc(Cl)cc(S(=O)(=O)C(F)(F)F)c1)c1ncnn1-c1ncc(OC(F)F)cn1 [II-43] | 100% | 100% | 100% | 100% | – | 100% | – | 80 to 100% | 80 to 100% | – | – | 100% | 100%
C[C@H](NC(=O)c1cc(C#N)cc(C2CC2)c1)c1ncnn1-c1ncccn1 [II-54] | – | – | 100% | 100% | – | 83% | – | 80 to 100% | 80 to 100% | – | – | 100% | 100%
